In patent US7659270B2, “Hepatitis C virus inhibitors” (Bristol-Myers Squibb Company, priority 2006, dated 2010) one finds EC50 data, which are given here for 20 molecules.

Like-named read-outs stand apart in the source and are kept apart here.

This test concerns HCV 1b-377-neo replicon cells. Briefly: HCV replicon assay (HCV 1b-377-neo replicon cells). It is filed as cell-based, Hepatitis C virus genotype 1b. The note with it: read-out: EC50 range against HCV 1b (Range). The method, boiled down: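 HCV genotype 1b (1b-377-neo) replicon cells, run as a validated replicon assay; parallel testing in replicon cells carrying the NS5A Y2065H resistance mutation.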

The term EC50 denotes the concentration giving half of the maximal effect. As for `COC(=O)N[C@@H](C(=O)N[C@@H](C)c1ncc(-c2ccc(-c3ccc(-c4cnc([C@@H]5CCCN5C(=O)[C@H](NC(=O)OC)c5ccccc5)[nH]4)cc3)nc2)[nH]1)c1ccccc1` [Example 152j-22, methyl ((1R)-2-((2S)-2-(5-(4-(5-(2-((1S)-1-(((2R)-2-((methoxycarbonyl)a-mino)-2-phenyl-acetyl)amino)eth-yl)-1H-imidazol-5-yl)-2-pyridinyl)phenyl)-1H-imidazol-2-yl)-1-pyrrolidinyl)-2-oxo-1-phenylethyl)carbamate], the EC50 (Hepatitis C virus) fell in the range of 0.01 to 0.999 nM.

Take `COC(=O)N[C@@H](C(=O)N[C@@H](C)c1ncc(-c2ccc(-c3ccc(-c4cnc([C@H](C)NC(=O)[C@H](NC(=O)OC)c5ccccc5)[nH]4)cn3)cc2)[nH]1)c1ccccc1` [Example 152j-23]: the EC50 (Hepatitis C virus) lay within 0.01 to 0.999 nM.

For the molecule `C[C@H](NC(=O)[C@@H](c1ccccc1)N(C)C)c1ncc(-c2ccc(-c3ccc(-c4cnc([C@H](C)NC(=O)[C@@H](c5ccccc5)N(C)C)[nH]4)cn3)cc2)[nH]1` [Example 152j-24, (2R)-2-(dimethylamino)-N-((1S)-1-(5-(6-(4-(2-((1S)-1-(((2R)-2-(dimethylamino)-2-phenyl-acetyl)amino)eth-yl)-1H-imidazol-5-yl)phenyl)-3-pyridinyl)-1H-imidazol-2-yl)ethyl)-2-phenylacetamide], the EC50 (Hepatitis C virus) lay in the range of 0.01 to 0.999 nM.

Turning to `COC(=O)N[C@@H](C(=O)N[C@@H](C)c1ncc(-c2ccc(-c3cnc(-c4cnc([C@@H]5CCCN5C(=O)[C@H](NC(=O)OC)c5ccccc5)[nH]4)cn3)cc2)[nH]1)c1ccccc1` [Example 152j-28], the EC50 (Hepatitis C virus) was 0.01 to 0.999 nM.

Regarding `COC(=O)N[C@@H](C(=O)N(C)[C@@H](C)c1ncc(-c2ccc(-c3ncc(-c4cnc([C@@H]5CCCN5C(=O)[C@@H](c5ccccc5)N5CCCCC5)[nH]4)cn3)cc2)[nH]1)c1ccccc1` [Example 152l-1, methyl ((1R)-2-(meth-yl((1S)-1-(4-(4-(5-(2-((2S)-1-((2R)-2-phenyl-2-(1-piperi-dinyl)acetyl)-2-pyrrolidinyl)-1H-imidazol-5-yl)-2-pyrimi-dinyl)phenyl)-1H-imidazol-2-yl)eth-yl)amino)-2-oxo-1-phenyl-ethyl)carbamate], the concentration giving a half-maximal response (EC50) (Hepatitis C virus) lay within 0.01 to 0.999 nM.

On to `COC(=O)N[C@@H](C(=O)N[C@@H](C)c1ncc(-c2ccc(-c3ncc(-c4cnc([C@@H]5CCCN5C(=O)[C@@H](c5ccccc5)N5CCCCC5)[nH]4)cn3)cc2)[nH]1)c1ccccc1` [Example 152l-2, methyl ((1R)-2-oxo-1-phen-yl-2-(((1S)-1-(4-(4-(5-(2-((2S)-1-((2R)-2-phenyl-2-(1-piperi-dinyl)acetyl)-2-pyrrolidinyl)-1H-imidazol-5-yl)-2-pyrimi-dinyl)phenyl)-1H-imidazol-2-yl)eth-yl)amino)ethyl)car-bamate], for which, for the setting “Hepatitis C virus”, the EC50 lay in the range of 0.01 to 0.999 nM. `COC(=O)N[C@@H](C(=O)N1CCC[C@H]1c1ncc(-c2ccc(-c3ncc(-c4cnc([C@@H]5CCCN5C(=O)[C@@H](c5ccccc5)N5CCCCC5)[nH]4)cn3)cc2)[nH]1)c1ccccc1` [Example 152l-3, methyl ((1R)-2-oxo-1-phe-nyl-2-((2S)-2-(4-(4-(5-(2-((2S)-1-((2R)-2-phenyl-2-(1-piperidinyl)acetyl)-2-pyrrolidinyl)-1H-imidazol-5-yl)-2-pyrimi-dinyl)phenyl)-1H-imidazol-2-yl)-1-pyrroli-dinyl)ethyl)carba-mate]: where the note is “Hepatitis C virus”, the EC50 lay within 0.01 to 0.999 nM. Still for that read-out and setting: then `CN(C)[C@@H](C(=O)N1CCC[C@H]1c1ncc(-c2ccc(-c3ccc(-c4cnc([C@@H]5CCCN5C(=O)[C@@H](c5ccccc5)N(C)C)[nH]4)nn3)nn2)[nH]1)c1ccccc1` [Example 153c-1], with 1 to 99 nM. For the molecule `COC(=O)N[C@@H](C(=O)N1CCC[C@H]1c1ncc(-c2ccc(-c3ccc(-c4cnc([C@@H]5CCCN5C(=O)[C@H](NC(=O)OC)c5ccccc5)[nH]4)nn3)nn2)[nH]1)c1ccccc1` [Example 153c-2, dimethyl (3,3′-bipyrida-zine-6,6′-diylbis(1H-imi-dazole-5,2-diyl(2S)-2,1-pyrrolidine-diyl((1R)-2-oxo-1-phenyl-2,1-ethane-diyl)))biscarba-mate], the EC50 (Hepatitis C virus) is 1 to 99 nM.

As for `CN(C)[C@@H](C(=O)N1CCC[C@H]1c1ncc(-c2cnc(-c3ncc(-c4cnc([C@@H]5CCCN5C(=O)[C@@H](c5ccccc5)N(C)C)[nH]4)cn3)nc2)[nH]1)c1ccccc1` [Example 153c-3, (1R,1′R)-2,2′-(2,2′-bipyrimi-dine-5,5′-diylbis(1H-imidazole-5,2-diyl (2S)-2,1-pyrrolidine-diyl))bis(N, N-dimeth-yl-2-oxo-1-phenyl-ethanamine)], the EC50 (Hepatitis C virus) was in the range of 1000 to 10000 nM. As to `COC(=O)N[C@@H](C(=O)N1CCC[C@H]1c1ncc(-c2cnc(-c3ncc(-c4cnc([C@@H]5CCCN5C(=O)[C@H](NC(=O)OC)c5ccccc5)[nH]4)cn3)nc2)[nH]1)c1ccccc1` [Example 153c-4, dimethyl (2,2′-bipyrimi-dine-5,5′-diylbis(1H-imi-dazole-5,2-diyl (2S)-2,1-pyrrolidine-diyl((1R)-2-oxo-1-phe-nyl-2,1-ethane-diyl)))biscarba-mate], under “Hepatitis C virus”, the EC50 was in the range of 1000 to 10000 nM.

Consider `CN(C)[C@@H](C(=O)N1CCC[C@H]1c1ncc(-c2cnc(-c3cnc(-c4cnc([C@@H]5CCCN5C(=O)[C@@H](c5ccccc5)N(C)C)[nH]4)cn3)cn2)[nH]1)c1ccccc1` [Example 153c-5, (1R,1′R)-2,2′-(2,2′-bipyrazine-5,5′-diylbis(1H-imidazole-5,2-diyl (2S)-2,1-pyrrolidine-diyl))bis(N, N-dimeth-yl-2-oxo-1-phenyl-ethanamine)], for which the EC50 (Hepatitis C virus) was in the range of 1 to 99 nM. As to `COC(=O)N[C@@H](C(=O)N1CCC[C@H]1c1ncc(-c2cnc(-c3cnc(-c4cnc([C@@H]5CCCN5C(=O)[C@H](NC(=O)OC)c5ccccc5)[nH]4)cn3)cn2)[nH]1)c1ccccc1` [Example 153c-6, dimethyl (2,2′-bipyrazine-5,5′-diylbis(1H-imi-dazole-5,2-diyl (2S)-2,1-pyrrolidine-diyl((1R)-2-oxo-1-phe-nyl-2,1-ethane-diyl)))biscarba-mate], the concentration for a half-maximal effect (EC50) (Hepatitis C virus) lay within 1 to 99 nM. In the case of `COC(=O)N[C@@H](C(=O)N[C@@H](C)c1ncc(-c2ccc(-c3ccc(-c4cnc([C@H](C)NC(=O)[C@H](NC(=O)OC)c5ccccc5)[nH]4)cn3)nc2)[nH]1)c1ccccc1` [Example 153c-7, dimethyl (2,2′-bipyridine-5,5′-diylbis (1H-imidazole-5,2-diyl (1S)-1,1-ethanediyl-imino((1R)-2-oxo-1-phenyl-2,1-ethane-diyl)))biscarba-mate], the EC50 (Hepatitis C virus) lay in the range of 1 to 99 nM. For `COC(=O)N[C@@H](C)C(=O)N1CCC[C@H]1c1nc(-c2cnc(-c3ccc(-c4cnc([C@@H]5CCCN5C(=O)[C@H](C)NC(=O)OC)[nH]4)c(F)c3)nc2)c[nH]1` [Example D67, methyl ((1S)-2-((2S)-2-(5-(2-flouro-4-(5-(2-((2S)-1-(N-(methoxy-carbonyl)-L-alanyl)-2-pyrroli-dinyl)-1H-imida-zol-5-yl)-2-pyrimi-dinyl)phenyl)-1H-imida-zol-2-yl)-1-pyrrolidinyl)-1-methyl-2-oxoeth-yl)carbamate], the EC50 (Hepatitis C virus) is 0.01 to 0.999 nM.

Regarding `COC(=O)N[C@H](C(=O)N1CCC[C@H]1c1ncc(-c2cnc(-c3ccc(-c4cnc([C@@H]5CCCN5C(=O)[C@@H](NC(=O)OC)C(C)C)[nH]4)c(F)c3)nc2)[nH]1)C(C)C` [Example D68, methyl ((1S)-1-(((2S)-2-(5-(2-fluoro-4-(5-(2-((2S)-1-((2S)-2-((methoxy-carbonyl)a-mino)-3-methyl-butanoyl)-2-pyrroli-dinyl)-1H-imida-zol-5-yl)-2-pyrimi-dinyl)phenyl)-1H-imida-zol-2-yl)-1-pyrroli-dinyl)carbo-nyl)-2-methylpro-pyl)carbamate], the EC50 lay within 0.01 to 0.999 nM. Take `COC(=O)N[C@@H](C(=O)N1CCC[C@H]1c1nc(-c2cnc(-c3ccc(-c4cnc([C@@H]5CCCN5C(=O)[C@H](NC(=O)OC)c5ccccc5)[nH]4)c(F)c3)nc2)c[nH]1)c1ccccc1` [Example D69, methyl ((1R)-2-((2S)-2-(5-(2-(3-fluoro-4-(2-((2S)-1-((2R)-2-((methoxy-carbonyl)a-mino)-2-phenyl-acetyl)-2-pyrroli-dinyl)-1H-imidazol-5-yl)phenyl)-5-pyrimi-dinyl)-1H-imida-zol-2-yl)-1-pyrrolidinyl)-2-oxo-1-phenyl-eth-yl)carbamate]: the EC50 (Hepatitis C virus) lay within 0.01 to 0.999 nM. Take `COC(=O)N[C@H](C(=O)N1CCC[C@H]1c1nc(-c2cnc(-c3ccc(-c4cnc([C@@H]5CCCN5C(=O)[C@@H](NC(=O)OC)[C@@H](C)OC)[nH]4)c(F)c3)nc2)c[nH]1)[C@@H](C)OC` [Example D70, methyl ((1S,2R)-1-(((2S)-2-(5-(2-fluoro-4-(5-(2-((2S)-1-(N-(methoxy-carbonyl)-O-methyl-L-threonyl)-2-pyrroli-dinyl)-1H-imida-zol-5-yl)-2-pyrimidi-nyl)phenyl)-1H-imida-zol-2-yl)-1-pyrroli-dinyl)carbo-nyl)-2-methoxy-propyl)carba-mate]: the concentration for a half-maximal effect (EC50) (Hepatitis C virus) lay in the range of 0.01 to 0.999 nM. With `COC(=O)N[C@@H](C)C(=O)N1CCC[C@H]1c1nc(-c2cnc(-c3ccc(-c4cnc([C@@H]5CCCN5C(=O)[C@H](C)NC(=O)OC)[nH]4)cc3)nc2)c[nH]1` [Example D73, methyl ((1S)-2-((2S)-2-(5-(4-(5-(2-((2S)-1-(N-(methoxy-carbonyl)-L-alanyl)-2-pyrroli-dinyl)-1H-imida-zol-5-yl)-2-pyrimi-dinyl)phenyl)-1H-imidazol-2-yl)-1-pyrroli-dinyl)-1-methyl-2-oxoeth-yl)carbamate], the EC50 (Hepatitis C virus) lay in the range of 0.01 to 0.999 nM. Turning to `COC(=O)N[C@H](C(=O)N1CCC[C@H]1c1nc(-c2cnc(-c3ccc(-c4cnc([C@@H]5CCCN5C(=O)[C@@H](NC(=O)OC)C(C)C)[nH]4)cc3)nc2)c[nH]1)C(C)C` [Example D74, methyl ((1S)-1-(((2S)-2-(5-(2-(4-(2-((2S)-1-((2S)-2-((methoxy-carbonyl)amino)-3-methyl-butanoyl)-2-pyrroli-dinyl)-1H-imidazol-5-yl)phenyl)-5-pyrimi-dinyl)-1H-imida-zol-2-yl)-1-pyrroli-dinyl)carbon-yl)-2-methylpro-pyl)carba-mate], the EC50 (Hepatitis C virus) was 0.01 to 0.999 nM.
